Here are results for one molecule from US5132328A, “Alcohol and ether derivatives” (Imperial Chemical Industries PLC, priority 1988, dated 1992).

Experiment [1] deals with T1, 5-LO (Homo sapiens, UniProt P09917).
T1 construct: heparinised human blood, prior to challenge with the calcium ionophore A23187; endogenous in cells; host or cells: heparinised human whole blood (blood cells, A23187-challenged)
T1 sequence (P09917 1-674): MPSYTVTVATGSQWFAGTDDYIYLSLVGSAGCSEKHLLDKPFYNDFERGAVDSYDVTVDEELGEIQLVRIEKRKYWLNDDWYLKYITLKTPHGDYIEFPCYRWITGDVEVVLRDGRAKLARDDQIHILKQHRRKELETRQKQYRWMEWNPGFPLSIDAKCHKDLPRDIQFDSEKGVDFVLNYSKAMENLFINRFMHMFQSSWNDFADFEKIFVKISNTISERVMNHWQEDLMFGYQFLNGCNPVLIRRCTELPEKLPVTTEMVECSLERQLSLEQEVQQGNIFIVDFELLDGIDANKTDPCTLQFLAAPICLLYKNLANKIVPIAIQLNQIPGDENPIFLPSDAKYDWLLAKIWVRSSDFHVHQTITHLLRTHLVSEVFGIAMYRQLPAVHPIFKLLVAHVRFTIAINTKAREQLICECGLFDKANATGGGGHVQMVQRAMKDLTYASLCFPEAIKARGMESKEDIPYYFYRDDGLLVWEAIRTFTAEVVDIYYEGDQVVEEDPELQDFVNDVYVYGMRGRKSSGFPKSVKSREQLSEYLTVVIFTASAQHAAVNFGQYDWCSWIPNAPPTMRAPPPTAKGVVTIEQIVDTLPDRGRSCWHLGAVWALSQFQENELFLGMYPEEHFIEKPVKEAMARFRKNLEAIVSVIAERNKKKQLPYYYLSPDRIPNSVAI
In words: Test (b): heparinised human blood challenged with A23187, LTB4 radioimmunoassay. Format: cell-based. How it is done: (§1) (b) An in vitro assay system involving incubating a test compound with heparinised human blood, prior to challenge with the calcium ionophore A23187 and then indirectly measuring the inhibitory effects on 5-LO by assaying the amount of LTB4 using the specific radioimmunoassay described by Carey and Forder (F. Carey and R. A. Forder, Brit. J. Pharmacol. 1985, 84, 34P) which involves the use of a protein-LTB4 conjugate produced using the procedure of Young et alia (Prostaglandins, 1983, 26(4), 605-613). The effects of a test compound on the enzyme cyclooxygenase (which is involved in the alternative metabolic pathway for arachidonic acid and gives rise to prostaglandins, thromboxanes and related metabolites) may be measured at the same time using the specific radioimmunoassay for thromboxane B2 (TxB2) described by Carey and Forder (see above). This test provides an indication of the effects of a test compound against 5-LO and also cyclooxygenase in the presence of blood cells and proteins. It permits the selectivity of the inhibitory effect on 5-LO or cyclooxygenase to be assessed.

The next experiment addresses T2, cyclooxygenase (Homo sapiens, UniProt P23219).
T2 construct: heparinised human blood, prior to challenge with the calcium ionophore A23187; endogenous in cells; host or cells: heparinised human whole blood (platelets and other blood cells, A23187-challenged)
In words: Test (b): heparinised human blood challenged with A23187, TxB2 radioimmunoassay. Format: cell-based. How it is done: as §1

Experiment [2] addresses T3, 5-LO (Rattus norvegicus, UniProt P12527).
T3 construct: blood collection, heparinisation, challenge with A23187 and radioimmunoassay of LTB4 and TxB2; endogenous in cells
T3 sequence (P12527 1-673): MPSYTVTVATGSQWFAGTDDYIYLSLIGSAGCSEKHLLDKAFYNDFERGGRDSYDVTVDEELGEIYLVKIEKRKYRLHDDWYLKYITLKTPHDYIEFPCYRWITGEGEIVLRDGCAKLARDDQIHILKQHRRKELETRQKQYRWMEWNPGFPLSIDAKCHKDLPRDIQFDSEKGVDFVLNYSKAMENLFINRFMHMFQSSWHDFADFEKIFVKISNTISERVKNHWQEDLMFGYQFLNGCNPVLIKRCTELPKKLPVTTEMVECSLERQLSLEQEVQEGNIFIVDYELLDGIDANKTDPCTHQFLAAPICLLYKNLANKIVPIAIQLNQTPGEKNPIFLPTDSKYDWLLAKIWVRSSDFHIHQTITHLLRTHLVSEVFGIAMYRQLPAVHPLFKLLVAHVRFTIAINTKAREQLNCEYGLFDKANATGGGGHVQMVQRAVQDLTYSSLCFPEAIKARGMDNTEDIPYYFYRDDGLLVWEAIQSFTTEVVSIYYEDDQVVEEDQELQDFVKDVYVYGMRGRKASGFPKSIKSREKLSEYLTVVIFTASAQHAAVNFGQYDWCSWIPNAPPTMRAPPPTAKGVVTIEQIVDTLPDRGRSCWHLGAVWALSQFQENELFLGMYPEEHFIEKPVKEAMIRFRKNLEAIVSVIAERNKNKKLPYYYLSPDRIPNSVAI
In words: Test (c): ex vivo assay after (usually oral) administration, blood challenged with A23187, LTB4 radioimmunoassay. The format is in vivo. How it is done: (c) An ex vivo assay system, which is a variation of test b) above, involving administration of a test compound (usually orally as the suspension produced when a solution of the test compound in dimethylsulphoxide is added to carboxymethylcellulose), blood collection, heparinisation, challenge with A23187 and radioimmunoassay of LTB4 and TxB2. This test provides an indication of the bioavailability of a test compound as an inhibitor of 5-LO or cyclooxygenase.

In general, IC50 refers to the midpoint of a concentration-inhibition curve. Low values mean inhibition by little substance, high ones a need for much substance. A word on the ED50: it is the dose that gives a 50% effect, or the effect in half of the subjects. A low value points to greater potency.

T2 sequence (P23219 24-599): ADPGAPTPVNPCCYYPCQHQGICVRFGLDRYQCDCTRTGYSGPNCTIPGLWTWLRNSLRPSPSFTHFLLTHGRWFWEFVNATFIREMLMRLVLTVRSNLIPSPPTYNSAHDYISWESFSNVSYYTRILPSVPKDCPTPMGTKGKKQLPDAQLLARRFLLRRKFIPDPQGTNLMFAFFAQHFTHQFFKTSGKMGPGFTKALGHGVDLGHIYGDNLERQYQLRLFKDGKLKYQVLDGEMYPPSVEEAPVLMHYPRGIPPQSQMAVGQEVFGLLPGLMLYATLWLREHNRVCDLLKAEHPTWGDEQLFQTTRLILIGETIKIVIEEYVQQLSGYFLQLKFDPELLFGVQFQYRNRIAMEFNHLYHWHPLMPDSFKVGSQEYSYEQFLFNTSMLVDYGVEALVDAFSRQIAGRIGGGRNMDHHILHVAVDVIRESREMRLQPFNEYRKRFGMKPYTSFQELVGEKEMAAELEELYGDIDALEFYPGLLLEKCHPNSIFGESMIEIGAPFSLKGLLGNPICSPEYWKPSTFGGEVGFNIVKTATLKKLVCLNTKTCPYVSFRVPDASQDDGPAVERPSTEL

As to `CCC(COC)(OC)c1cccc(OCc2ccc3ccccc3c2)c1` (stereo not drawn) [2-methoxy-2-[3-(naphth-2-ylmethoxy)phenyl]but-1-yl methyl ether], the IC50 against 5-LO [1] is 500 nM; on cyclooxygenase, more than 40000 nM. This molecule gave a 50% effective dose (ED50) at 5-LO [2] of 30 mg/kg.
